How the values were obtained:
WT-HCV protease-SEAP = conditions: SCID mice expressing WT-HCV protease-SEAP; cited from earlier work
HCV NS3/4A protease = HCV NS3/4A protease (Hepatitis C virus genotype 1a, UniProt P27958); test: In vitro cleavage of TRIF by HCV NS3/4A protease; type: biochemical; conditions: 10 μM VX-950, tNS3 protease 0-4 μM
Procedure: The 35S methionine labeled coupled in vitro transcription/translation product of TRIF protein (as a substrate) was incubated with increasing concentration of tNS3 protease enzyme ranging from 0-4 μM either in the presence (Circles) or absence (Squares) of 10 μM VX-950, followed by SDS-PAGE and exposure to phosphorimager.

[1] = Predicted human liver exposures versus replicon assay IC50/IC90; conditions: dose range studied
Text: Liver exposures to VX-950 were predicted based on the integrated preclinical and clinical data.

HCV genotype 1 = test: Multiple-dose 14-day study, plasma HCV RNA (Roche COBAS TaqMan HCV/HPS assay); type: in vivo, human
Text: Detection of HCV RNA was done using the Roche COBAS TaqMan HCV/HPS assay, available from Roche molecular Diagnostics. Other assays are available.

neopterin = test: Multiple-dose 14-day study, serum neopterin (competitive ELISA); conditions: 750 mg q8h, day 14; baseline 10.48±0.84 nmol/l; ULN 7.7 nmol/l
[2] = system: ALT (alanine aminotransferase); test: Multiple-dose 14-day study, serum ALT; conditions: 450 mg q8h, day 12; 5 out of 10 samples missing
[3] = system: AST (aspartate aminotransferase); test: Multiple-dose 14-day study, AST; type: in vivo, human; conditions: upon administration of VX-950
IFN-β promoter activity = test: IFN-β promoter luciferase activity in Sendai virus stimulated Huh7 cells expressing HCV protease; conditions: 10 μM VX-950, Sendai virus infected Huh7 cells, WT HCV protease
[4] = in vivo

Chain of HCV NS3/4A protease (P27958 1027-1208, other chains not shown): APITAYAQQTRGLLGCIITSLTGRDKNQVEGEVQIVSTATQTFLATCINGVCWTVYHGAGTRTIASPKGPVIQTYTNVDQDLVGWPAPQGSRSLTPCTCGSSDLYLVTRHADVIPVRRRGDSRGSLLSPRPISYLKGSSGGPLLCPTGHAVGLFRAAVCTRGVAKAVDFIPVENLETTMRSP

For `CCC[C@H](NC(=O)[C@@H]1[C@H]2CCC[C@H]2CN1C(=O)[C@@H](NC(=O)[C@@H](NC(=O)c1cnccn1)C1CCCCC1)C(C)(C)C)C(=O)C(=O)NC1CC1` [VX-950], the “effect on elevated ALT levels in animal model” value (WT-HCV protease-SEAP) is given as “ameliorates elevated ALT levels”, the “effect on in vitro cleavage of TRIF” value (HCV NS3/4A protease) is given as “inhibits in vitro cleavage of TRIF” and the “predicted average liver concentration as multiple of the replicon assay IC50” value [1] is given as “up to 113 fold”. For the same compound, the “predicted average liver concentration as multiple of the replicon assay IC90” value [1] was “up to 57 fold”, the “Maximum change from baseline in HCV RNA (log10 IU/mL), subjects in category” value (HCV genotype 1; category >−1 to <0, 450 mg q8 h (n = 10)) was 0 n and the “Maximum change from baseline in HCV RNA (log10 IU/mL), subjects in category” value (HCV genotype 1; category >−1 to <0, 750 mg q8 h (n = 8)) was 0 n. The “Maximum change from baseline in HCV RNA (log10 IU/mL), subjects in category” value (HCV genotype 1; category >−1 to <0, 1250 mg q12 h (n = 10)) was 0 n, the “Maximum change from baseline in HCV RNA (log10 IU/mL), subjects in category” value (HCV genotype 1; category >−2 to ≦−1, 450 mg q8 h (n = 10)) was 0 n and the “Maximum change from baseline in HCV RNA (log10 IU/mL), subjects in category” value (HCV genotype 1; category >−2 to ≦−1, 750 mg q8 h (n = 8)) was 0 n. The “Maximum change from baseline in HCV RNA (log10 IU/mL), subjects in category” value (HCV genotype 1; category >−2 to ≦−1, 1250 mg q12 h (n = 10)) was 0 n, the “Maximum change from baseline in HCV RNA (log10 IU/mL), subjects in category” value (HCV genotype 1; category >−3 to ≦−2, 450 mg q8 h (n = 10)) was 1 n and the “Maximum change from baseline in HCV RNA (log10 IU/mL), subjects in category” value (HCV genotype 1; category >−3 to ≦−2, 750 mg q8 h (n = 8)) was 0 n. The “Maximum change from baseline in HCV RNA (log10 IU/mL), subjects in category” value (HCV genotype 1; category >−3 to ≦−2, 1250 mg q12 h (n = 10)) was 1 n, the “Maximum change from baseline in HCV RNA (log10 IU/mL), subjects in category” value (HCV genotype 1; category >−4 to ≦−3, 450 mg q8 h (n = 10)) was 7 n and the “Maximum change from baseline in HCV RNA (log10 IU/mL), subjects in category” value (HCV genotype 1; category >−4 to ≦−3, 750 mg q8 h (n = 8)) was 3 n. The “Maximum change from baseline in HCV RNA (log10 IU/mL), subjects in category” value (HCV genotype 1; category >−4 to ≦−3, 1250 mg q12 h (n = 10)) was 9 n, the “Maximum change from baseline in HCV RNA (log10 IU/mL), subjects in category” value (HCV genotype 1; category >−5 to ≦−4, 450 mg q8 h (n = 10)) was 0 n and the “Maximum change from baseline in HCV RNA (log10 IU/mL), subjects in category” value (HCV genotype 1; category >−5 to ≦−4, 750 mg q8 h (n = 8)) was 3 n. The “Maximum change from baseline in HCV RNA (log10 IU/mL), subjects in category” value (HCV genotype 1; category >−5 to ≦−4, 1250 mg q12 h (n = 10)) was 0 n, the “Maximum change from baseline in HCV RNA (log10 IU/mL), subjects in category” value (HCV genotype 1; category ≧−5, 450 mg q8 h (n = 10)) was 2 n and the “Maximum change from baseline in HCV RNA (log10 IU/mL), subjects in category” value (HCV genotype 1; category ≧−5, 750 mg q8 h (n = 8)) was 2 n. The “Maximum change from baseline in HCV RNA (log10 IU/mL), subjects in category” value (HCV genotype 1; category ≧−5, 1250 mg q12 h (n = 10)) was 0 n, the “drop in viral load, every patient” value (HCV genotype 1; during administration, all dose groups) was > 2 log10 and the “subjects with a 3 log10 reduction in HCV-RNA” value (HCV genotype 1; within the first three days, of the 28 subjects receiving VX-950) was 26. For the same compound, the mean neopterin (neopterin) was 7.32 ± 0.48 nmol/L, the “ALT level, median” value [2] was 38 U/l and the “ALT level, range” value [2] was 25-125 U/l. For the same compound, the “effect on AST levels” value [3] was “decreased”, the “effect on IFNβ dependent gene expression” value (IFN-β promoter activity) was “restores IFNβ dependent gene expression” and the “severe (grade 3 or grade 4) adverse events” value [4] was “No adverse events were considered to be severe”.

Source: patent publication US8431615B2, “Dose forms” (priority 2004, dated 2013)
